Data as given in PMC6691809 (Mycobiology, 2019).

How the values were obtained:
[1] = target: neuraminidase from recombinant H5N1 influenza A virus (Influenza A virus, UniProt Q6DPL2); assay: biochemical
[2] = target: neuraminidase from recombinant H3N2 influenza A virus (Influenza A virus, UniProt P03482); assay: biochemical; format: biochemical
Chain of neuraminidase from recombinant H3N2 influenza A virus (P03482 whole entry): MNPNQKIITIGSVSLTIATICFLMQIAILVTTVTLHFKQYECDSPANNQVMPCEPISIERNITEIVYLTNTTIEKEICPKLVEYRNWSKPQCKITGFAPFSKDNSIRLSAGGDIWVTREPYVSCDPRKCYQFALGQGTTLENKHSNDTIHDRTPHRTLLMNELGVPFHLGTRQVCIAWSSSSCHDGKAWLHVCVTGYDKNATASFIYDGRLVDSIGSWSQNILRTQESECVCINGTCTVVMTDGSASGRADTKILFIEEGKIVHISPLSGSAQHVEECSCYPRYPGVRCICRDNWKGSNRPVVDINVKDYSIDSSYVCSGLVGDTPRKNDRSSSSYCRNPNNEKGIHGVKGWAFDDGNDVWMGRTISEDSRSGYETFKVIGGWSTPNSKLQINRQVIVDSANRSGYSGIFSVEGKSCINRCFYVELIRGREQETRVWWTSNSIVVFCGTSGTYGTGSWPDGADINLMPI

Chain of neuraminidase from recombinant H5N1 influenza A virus (Q6DPL2 whole entry, looked up): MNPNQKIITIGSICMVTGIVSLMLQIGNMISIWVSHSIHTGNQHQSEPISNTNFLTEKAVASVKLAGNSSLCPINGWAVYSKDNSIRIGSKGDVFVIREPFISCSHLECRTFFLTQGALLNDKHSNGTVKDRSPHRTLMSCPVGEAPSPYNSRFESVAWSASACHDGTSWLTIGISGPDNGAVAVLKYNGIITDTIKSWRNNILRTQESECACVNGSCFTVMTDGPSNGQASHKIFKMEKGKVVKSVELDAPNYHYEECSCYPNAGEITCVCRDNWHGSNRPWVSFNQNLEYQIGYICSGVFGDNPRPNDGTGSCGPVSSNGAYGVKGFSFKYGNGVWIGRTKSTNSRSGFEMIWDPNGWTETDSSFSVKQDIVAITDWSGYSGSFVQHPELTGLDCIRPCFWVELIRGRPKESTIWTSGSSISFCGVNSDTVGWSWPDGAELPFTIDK

C/C=C/C1=CC2=C(CO1)C(=O)[C@](C)(O)[C@H](OC(=O)c1c(C)cc(O)cc1O)C2 [Compound 3, comazaphilone D]
IC50 [1]: 35.7 ± 0.2 µM | Inhibition type [2]: Non-competitive (35.3) | Ki [2]: 35.3 µM | IC50 ([2]; IC50 H3N2 neuraminidase): 30.9 ± 0.1 µM
